Assay results reported in paper PMC7211837, “Design, synthesis, molecular modelling and in vitro screening of monoamine oxidase inhibitory activities of novel quinazolyl hydrazine derivatives” (Royal Society Open Science, 2020).
“Also recorded” adds a separate entry of the source. Marks after values point to notes of the source that are not given here.

T1: membrane-bound human MAO-B (Homo sapiens, UniProt P27338)
T1 sequence (P27338 1-520): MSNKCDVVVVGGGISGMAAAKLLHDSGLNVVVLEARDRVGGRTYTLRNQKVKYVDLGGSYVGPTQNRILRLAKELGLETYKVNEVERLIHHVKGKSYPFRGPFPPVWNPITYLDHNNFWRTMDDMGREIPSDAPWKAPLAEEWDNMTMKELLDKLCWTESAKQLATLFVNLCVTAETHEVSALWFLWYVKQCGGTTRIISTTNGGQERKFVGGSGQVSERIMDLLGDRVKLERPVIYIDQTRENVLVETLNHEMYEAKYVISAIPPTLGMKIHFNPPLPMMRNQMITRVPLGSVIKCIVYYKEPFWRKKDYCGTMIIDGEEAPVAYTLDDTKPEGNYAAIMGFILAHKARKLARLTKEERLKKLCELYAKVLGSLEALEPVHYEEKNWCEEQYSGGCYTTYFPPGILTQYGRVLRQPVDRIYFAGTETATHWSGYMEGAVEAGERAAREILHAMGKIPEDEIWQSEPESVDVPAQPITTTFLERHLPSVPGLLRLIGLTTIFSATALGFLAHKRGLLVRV

T2: membrane-bound human MAO-A (Homo sapiens, UniProt P21397)
T2 sequence (P21397 1-527): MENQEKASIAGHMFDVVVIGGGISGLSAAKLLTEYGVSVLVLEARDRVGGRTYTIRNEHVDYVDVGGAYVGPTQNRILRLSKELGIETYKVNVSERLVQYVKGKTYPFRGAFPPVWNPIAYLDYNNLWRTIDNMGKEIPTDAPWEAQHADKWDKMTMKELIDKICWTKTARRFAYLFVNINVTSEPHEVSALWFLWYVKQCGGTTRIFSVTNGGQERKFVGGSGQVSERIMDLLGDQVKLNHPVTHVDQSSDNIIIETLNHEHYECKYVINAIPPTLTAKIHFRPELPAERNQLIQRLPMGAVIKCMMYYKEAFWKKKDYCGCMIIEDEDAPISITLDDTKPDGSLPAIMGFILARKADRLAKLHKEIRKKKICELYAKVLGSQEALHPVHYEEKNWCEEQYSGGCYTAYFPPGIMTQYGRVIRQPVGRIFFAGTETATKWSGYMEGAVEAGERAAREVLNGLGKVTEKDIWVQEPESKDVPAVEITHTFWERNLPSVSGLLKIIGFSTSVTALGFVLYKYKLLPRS

T3: MAO-A (Homo sapiens, UniProt P21397)
T3 sequence (P21397 1-527): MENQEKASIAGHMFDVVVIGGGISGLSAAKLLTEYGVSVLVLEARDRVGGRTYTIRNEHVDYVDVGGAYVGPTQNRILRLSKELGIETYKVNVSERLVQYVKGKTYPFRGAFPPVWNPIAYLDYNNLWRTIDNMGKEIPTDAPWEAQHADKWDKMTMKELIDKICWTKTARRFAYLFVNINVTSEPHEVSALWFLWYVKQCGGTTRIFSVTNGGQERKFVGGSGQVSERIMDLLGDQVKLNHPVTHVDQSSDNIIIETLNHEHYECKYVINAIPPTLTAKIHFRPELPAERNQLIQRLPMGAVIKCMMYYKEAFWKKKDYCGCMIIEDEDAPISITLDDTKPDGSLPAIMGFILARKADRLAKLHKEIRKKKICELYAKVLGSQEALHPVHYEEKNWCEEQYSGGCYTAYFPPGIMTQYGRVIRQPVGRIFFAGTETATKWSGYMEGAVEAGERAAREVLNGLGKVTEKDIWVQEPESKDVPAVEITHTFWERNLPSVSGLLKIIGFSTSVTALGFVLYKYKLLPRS


What was measured:
[1] = biological target: T1, membrane-bound human MAO-B; test: MAO-B inhibition, H2O2/horseradish peroxidase coupled fluorescence assay with tyramine; assay type: biochemical; conditions: for maximum inhibition (%) hMAO-B: from dose–response curve, in parentheses after IC50, given if less than 95%; for inhibition at 10 µM: read-out: % inhibition at 10 μM hMAO-B, 10 μM compound, tyramine 0.32 mM (2 × KM), average of two independent experiments; for IC50 (μM) hMAO-B / IC50: tyramine at 2 × KM, seven concentrations 0.01–300 µM, ± s.d., two independent experiments; for IC50: read-out: IC50 (μM) hMAO-B
Protocol: (§1) Incomplete inhibition of activity could arise either from indirect effects on these enzymes or from the compounds acting as substrates at the highest concentrations.
(§2) The activity of MAO was determined using the coupled assay method of [41, 42] in which the product, H2O2, acts with horseradish peroxidase to convert 10-acetyl-3,7-dihydroxyphenoxazine to the fluorescent resorufin. […] The data were analysed using the equation for a three-parameter curve in Graphpad PRISM v. 4, and the % inhibition calculated from the top and bottom of the resulting curve.

[2] = biological target: T2, membrane-bound human MAO-A; test: MAO-A inhibition, H2O2/horseradish peroxidase coupled fluorescence assay with tyramine; assay type: biochemical; conditions: for mechanism of inhibition of MAO-A: 30 min preincubation, dilution ×100, increasing substrate concentration; for inhibition at 10 µM: read-out: % inhibition at 10 μM hMAO-A; for inhibition of MAO-A compared with MAO-B in the screen: screen at 10 µM; for IC50 (μM) hMAO-A / IC50: tyramine at 2 × KM, seven concentrations 0.01–300 µM, ± s.d., two independent experiments; for IC50: read-out: IC50 (μM) hMAO-A
Protocol: as §1, §2

MAO-A [3] = biological target: T3, MAO-A; test: Oxidation of compound by MAO-A in the standard coupled assay in the absence of tyramine; assay type: biochemical
Protocol: (§3) Compound 6 in the screening assay with 10 µM inhibitor gave an increased rate of appearance of fluorescence indicating faster production of the product H2O2 (not the slower rate observed with other compounds that inhibit MAO activity).
(§4) Figure 3. Oxidation of 6 (squares) but not 12d (triangles) by MAO-A. The concentration of compound was varied in the standard assay coupled to the production of H2O2 but in the absence of the substrate tyramine.
(§5) The activity of MAO was determined using the coupled assay method of [41, 42] in which the product, H2O2, acts with horseradish peroxidase to convert 10-acetyl-3,7-dihydroxyphenoxazine to the fluorescent resorufin. […] For compounds that gave more than 30% inhibition, the IC50 was determined using seven concentrations of each compound (0.01–300 μM) with substrate at 2 × KM. […] The data were analysed using the equation for a three-parameter curve in Graphpad PRISM v. 4, and the % inhibition calculated from the top and bottom of the resulting curve.

MAO-A [4] = test system: MAO-A; design: method as in PMID 16356714, PMID 20708306, PMID 19043245, PMID 25707011, PMID 25922182; conditions: lead structure of Chart 1, earlier series of the group ref 21–25; cited from earlier work
[5] = substrate: COc1cc(/C=N/NC(=O)CNC(=O)c2cc(Cl)ccc2/N=C/c2ccccc2)ccc1O; test: Oxidation of compound by MAO-A in the standard coupled assay in the absence of tyramine; assay type: biochemical, human; conditions: other: compound as substrate
Protocol: as §3, §4, §5

[6] = 10 μM compound, tyramine 0.8 mM (2 × KM), average of two independent experiments

melting point | inhibition at 10 µM [1] | IC50 [1] | inhibition at 10 µM [2, 6] | Molecule | further results
240 to 242 °C | 72% | 0.44 ± 0.1 µM | 70% | COc1cc(C=NNC(=O)CN2C(=O)c3cc(Cl)ccc3NC2c2ccccc2)ccc1O (centres unmarked) [5h, 2-(6-Chloro-4-oxo-2-phenyl-1,4-dihydroquinazolin-3(2H)-yl)-N'-(4-hydroxy-3-methoxybenzylidene)-acetohydrazide] | maximum inhibition (%) hMAO-B [1]: full inhibition; IC50 (μM) hMAO-B [1]: micromolar affinity; mechanism of inhibition of MAO-A [2]: competitive inhibition; selectivity MAO-A versus MAO-B ([2]; from IC50 values on MAO-A and MAO-B): non-selective; inhibition of MAO-A compared with MAO-B in the screen [2]: equal inhibition of MAO-A and MAO-B; also recorded: equally inhibited; IC50 (μM) hMAO-A [2]: micromolar potency; IC50 [2]: 0.31 ± 0.11 µM
242 to 245 °C | 26% |  | 6% | Cc1nc2ccccc2c(=O)n1CC(=O)NN=Cc1ccccc1 [12a, N'-Benzylidene-2-(2-methyl-4-oxoquinazolin-3(4H)-yl)acetohydrazide] | 
192 to 195 °C | 16% | > 100 µM | 16% | Cc1nc2ccccc2c(=O)n1CC(=O)NN=Cc1ccc(O)cc1 [12b, N'-(4-Hydroxybenzylidene)-2-(2-methyl-4-oxoquinazolin-3(4H)-yl)acetohydrazide] | inhibition of MAO-A compared with MAO-B in the screen [2]: equal inhibition of MAO-A and MAO-B; also recorded: equally inhibited
> 229 °C (dec.) | 21% |  | 5% | COc1ccc(C=NNC(=O)Cn2c(C)nc3ccccc3c2=O)cc1 [12c, N'-(4-Methoxybenzylidene)-2-(2-methyl-4-oxoquinazolin-3(4H)-yl)acetohydrazide] | 
258 to 260 °C | 52% | 3.62 ± 0.69 µM | 27% | COc1cc(C=NNC(=O)Cn2c(C)nc3ccccc3c2=O)ccc1O [12d, N'-(4-Hydroxy-3-methoxybenzylidene)-2-(2-methyl-4-oxoquinazolin-3(4H)-yl)acetohydrazide] | mechanism of inhibition of MAO-B ([1]; 30 min preincubation, dilution ×100, increasing substrate concentration): competitive inhibition; maximum inhibition (%) hMAO-B [1]: full inhibition; IC50 (μM) hMAO-B [1]: micromolar affinity; mechanism of inhibition of MAO-A [2]: competitive inhibition; maximum inhibition (%) hMAO-A ([2]; from dose–response curve, in parentheses after IC50, given if less than 95%): 32%; IC50 [2]: 1.41 ± 0.47 µM

Continued, molecule first:

Molecule | melting point | inhibition at 10 µM [1] | IC50 [1] | inhibition at 10 µM [2, 6] | further results
COc1cc(/C=N/NC(=O)CNC(=O)c2cc(Cl)ccc2/N=C/c2ccccc2)ccc1O [compound 6, 2-(((E)-benzylidene)amino)-5-chloro-N-(2-(2-((E)-4-hydroxy-3-methoxybenzylidene)hydrazinyl)-2-oxoethyl)benzamide] | 257 to 259 °C | 12% | 9 ± 2.3 µM |  | H2O2 production / oxidation by MAO-A in the absence of the normal substrate (MAO-A [3]; absence of tyramine): gave a measurable rate of H2O2 production; Vmax for oxidation by MAO-A as % of the Vmax for tyramine (MAO-A [3]; same conditions, tyramine run in parallel): 77%; % inhibition at 10 μM hMAO-A [2, 6]: none; IC50 (μM) hMAO-A [2]: (rate increases)^c
C/C(=N/NC(=O)Cn1c(=O)c(Cc2ccccc2)nc2ccccc21)c1ccc(O)cc1 [lead structure] |  |  |  |  | MAO-A activity PIC50 (MAO-A [4]): 7.8
MAO-A (Homo sapiens) (protein) MENQEKASIAGHMFDVVVIGGGISGLSAAKLLTEYGVSVLVLEARDRVGGRTYTIRNEHVDYVDVGGAYVGPTQNRILRLSKELGIETYKVNVSERLVQYVKGKTYPFRGAFPPVWNPIAYLDYNNLWRTIDNMGKEIPTDAPWEAQHADKWDKMTMKELIDKICWTKTARRFAYLFVNINVTSEPHEVSALWFLWYVKQCGGTTRIFSVTNGGQERKFVGGSGQVSERIMDLLGDQVKLNHPVTHVDQSSDNIIIETLNHEHYECKYVINAIPPTLTAKIHFRPELPAERNQLIQRLPMGAVIKCMMYYKEAFWKKKDYCGCMIIEDEDAPISITLDDTKPDGSLPAIMGFILARKADRLAKLHKEIRKKKICELYAKVLGSQEALHPVHYEEKNWCEEQYSGGCYTAYFPPGIMTQYGRVIRQPVGRIFFAGTETATKWSGYMEGAVEAGERAAREVLNGLGKVTEKDIWVQEPESKDVPAVEITHTFWERNLPSVSGLLKIIGFSTSVTALGFVLYKYKLLPRS |  |  |  |  | Km [5]: 35.5 µM
